Laboratory results: PubChem BioAssay (NCI)
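Five compound concentrations were applied to cells in 96-well plates for 48 hours; endpoints were derived by simple linear interpolation of the resulting dose-response curve. TGI denotes the concentration required for complete inhibition of growth.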

Tests used:
Assay in all cases: NCI-60 cell line screen, 48 h
[1] = test system: OVCAR-3 ovarian
[2] = test system: SN12C renal
[3] = test system: MDA-MB-231 breast
[4] = test system: HS 578T breast
[5] = test system: SK-MEL-5 melanoma
[6] = test system: SK-MEL-28 melanoma
[7] = test system: 786-0 renal
[8] = test system: SF-295 CNS
[9] = test system: IGROV1 ovarian
[10] = test system: SW-620 colon
[11] = test system: XF 498 CNS
[12] = test system: HCC-2998 colon
[13] = test system: PC-3 prostate
[14] = test system: SK-MEL-2 melanoma
[15] = test system: MALME-3M melanoma
[16] = test system: LOX IMVI melanoma
[17] = test system: DMS 114 small cell lung
[18] = test system: RXF 393 renal
[19] = test system: A549 NSCLC
[20] = test system: NCI-H226 lung
[21] = test system: HCT-116 colon
[22] = test system: HOP-18 NSCLC
[23] = test system: UO-31 renal
[24] = test system: SNB-75 CNS
[25] = test system: OVCAR-5 ovarian
[26] = test system: SF-539 CNS
[27] = test system: HT29 colon
[28] = test system: U251 CNS
[29] = test system: MDA-MB-435
[30] = test system: NCI-H460 lung
[31] = test system: OVCAR-8 ovarian
[32] = test system: T-47D breast
[33] = test system: UACC-257 melanoma
[34] = test system: HL-60(TB) leukemia
[35] = test system: SK-OV-3 ovarian
[36] = test system: HOP-62 NSCLC
[37] = test system: OVCAR-4 ovarian
[38] = test system: KM20L2 colon
[39] = test system: NCI/ADR-RES ovarian
[40] = test system: DU-145 prostate
[41] = test system: LXFL 529 NSCLC
[42] = test system: K-562 leukemia
[43] = test system: MCF7 breast
[44] = test system: HCT-15 colon
[45] = test system: TK-10 renal
[46] = test system: A498 renal
[47] = test system: DMS 273 small cell lung
[48] = test system: UACC-62 melanoma
[49] = test system: EKVX NSCLC
[50] = test system: KM12 colon
[51] = test system: SR leukemia
[52] = test system: SNB-78 CNS
[53] = test system: SF-268 CNS
[54] = test system: SNB-19 CNS
[55] = test system: MOLT-4 leukemia
[56] = test system: COLO 205 colon
[57] = test system: ACHN renal
[58] = test system: NCI-H522 lung
[59] = test system: DLD-1 colon
[60] = test system: CAKI-1 renal
[61] = test system: HOP-92 NSCLC
[62] = test system: RPMI-8226 leukemia
[63] = test system: NCI-H23 lung
[64] = test system: M14 melanoma
[65] = test system: M19-MEL melanoma
[66] = test system: CCRF-CEM leukemia
[67] = test system: RXF-631 renal

COc1cc(/C=C/c2ccc(/C=C/c3cc(OC)c(OC)c(OC)c3)cc2)cc(OC)c1OC
TGI [1]: 77.3 µM | TGI [2]: > 100 µM | TGI [3]: 52.7 µM | TGI [4]: 75.5 µM | TGI [5]: > 100 µM | TGI [6]: > 100 µM | TGI [7]: 20.7 µM | TGI [8]: 19.8 µM | TGI [9]: > 71.1 µM | TGI [10]: > 100 µM | TGI [11]: 31.4 µM | TGI [12]: > 61.1 µM | TGI [13]: > 100 µM | TGI [14]: 53.9 µM | TGI [15]: 60.1 µM | TGI [16]: > 85.8 µM | TGI [17]: > 68.2 µM | TGI [18]: 20.4 µM | TGI [19]: > 100 µM | TGI [20]: 49.7 µM | TGI [21]: > 100 µM | TGI [22]: > 100 µM | TGI [23]: > 84.6 µM | TGI [24]: 19.5 µM | TGI [25]: > 100 µM | TGI [26]: 17.8 µM | TGI [27]: > 61.7 µM | TGI [28]: 29.5 µM | TGI [29]: > 100 µM | TGI [30]: > 82 µM | TGI [31]: 56.1 µM | TGI [32]: 24 µM | TGI [33]: > 100 µM | TGI [34]: > 100 µM | TGI [35]: 22.7 µM | TGI [36]: 31.3 µM | TGI [37]: 18.1 µM | TGI [38]: > 76.3 µM | TGI [39]: > 100 µM | TGI [40]: > 100 µM | TGI [41]: 35.9 µM | TGI [42]: > 100 µM | TGI [43]: > 100 µM | TGI [44]: > 100 µM | TGI [45]: 39.5 µM | TGI [46]: 26.1 µM | TGI [47]: > 48.9 µM | TGI [48]: 25.1 µM | TGI [49]: > 69.1 µM | TGI [50]: > 77.4 µM | TGI [51]: > 100 µM | TGI [52]: 85 µM | TGI [53]: 42.5 µM | TGI [54]: 32.6 µM | TGI [55]: > 100 µM | TGI [56]: > 100 µM | TGI [57]: 44.5 µM | TGI [58]: 27.2 µM | TGI [59]: > 100 µM | TGI [60]: 72.3 µM | TGI [61]: 34.7 µM | TGI [62]: > 100 µM | TGI [63]: 25.2 µM | TGI [64]: > 100 µM | TGI [65]: > 100 µM | TGI [66]: > 100 µM

S=C(N/N=C/c1ccccc1)NC12CC3CC(CC(C3)C1)C2
TGI [1]: 83.4 µM | TGI [2]: 48.8 µM | TGI [5]: > 100 µM | TGI [6]: > 100 µM | TGI [7]: > 100 µM | TGI [8]: > 100 µM | TGI [9]: > 100 µM | TGI [10]: > 100 µM | TGI [11]: > 100 µM | TGI [14]: > 100 µM | TGI [16]: 45.1 µM | TGI [18]: > 100 µM | TGI [19]: > 100 µM | TGI [20]: > 100 µM | TGI [21]: > 100 µM | TGI [23]: > 100 µM | TGI [25]: > 100 µM | TGI [26]: > 100 µM | TGI [27]: 26.5 µM | TGI [28]: > 100 µM | TGI [30]: > 100 µM | TGI [31]: > 100 µM | TGI [33]: > 100 µM | TGI [34]: > 100 µM | TGI [35]: > 100 µM | TGI [36]: > 100 µM | TGI [37]: > 100 µM | TGI [38]: 76.2 µM | TGI [41]: > 100 µM | TGI [42]: > 100 µM | TGI [44]: > 100 µM | TGI [45]: > 100 µM | TGI [46]: > 100 µM | TGI [47]: 67.9 µM | TGI [48]: > 100 µM | TGI [49]: > 100 µM | TGI [50]: > 100 µM | TGI [51]: > 100 µM | TGI [53]: > 100 µM | TGI [54]: > 100 µM | TGI [55]: 74.2 µM | TGI [56]: 89.6 µM | TGI [57]: > 100 µM | TGI [58]: > 100 µM | TGI [60]: > 100 µM | TGI [61]: 56.2 µM | TGI [62]: 95.5 µM | TGI [63]: > 100 µM | TGI [67]: > 100 µM | TGI [64]: > 100 µM | TGI [66]: 92.4 µM

Cn1c2c(c3ccccc31)C1C(=O)N(c3ccccc3)C(=O)C1CC2 (stereo unspecified)
TGI [1]: > 303 µM | TGI [2]: > 303 µM | TGI [5]: > 303 µM | TGI [6]: > 303 µM | TGI [7]: > 303 µM | TGI [8]: > 303 µM | TGI [9]: > 303 µM | TGI [10]: > 303 µM | TGI [12]: > 303 µM | TGI [14]: > 303 µM | TGI [15]: > 303 µM | TGI [16]: > 303 µM | TGI [17]: > 303 µM | TGI [18]: > 303 µM | TGI [19]: > 303 µM | TGI [20]: > 303 µM | TGI [21]: > 303 µM | TGI [26]: > 303 µM | TGI [27]: > 303 µM | TGI [28]: > 303 µM | TGI [30]: > 303 µM | TGI [31]: > 303 µM | TGI [33]: > 303 µM | TGI [34]: > 303 µM | TGI [35]: > 303 µM | TGI [36]: > 303 µM | TGI [38]: > 303 µM | TGI [41]: > 303 µM | TGI [42]: > 303 µM | TGI [44]: > 303 µM | TGI [45]: > 303 µM | TGI [47]: > 303 µM | TGI [48]: > 303 µM | TGI [49]: > 303 µM | TGI [50]: > 303 µM | TGI [51]: > 303 µM | TGI [53]: > 303 µM | TGI [54]: > 303 µM | TGI [55]: > 303 µM | TGI [56]: > 303 µM | TGI [57]: > 303 µM | TGI [58]: > 303 µM | TGI [59]: > 303 µM | TGI [60]: > 303 µM | TGI [61]: > 303 µM | TGI [62]: > 303 µM | TGI [63]: > 303 µM | TGI [67]: > 303 µM | TGI [66]: > 303 µM
